Data taken from paper PMC11737796 (PLOS ONE, 2025).
“And” between values parts separate entries of the source, which are not always exact repeats. Identical values can stand only once. Like-named read-outs stand apart in the source and are kept apart here.

How the values were obtained:
thymocyte numbers = conditions: bi-daily administration of 10 mg/kg, after two days; cited from earlier work
IMQ model = conditions: cited from earlier work
[1] = Mouse plasma protein binding; format: in vitro ADME
Description: Table 1 Overview of compound potencies in multiple assays. | column: 1; 2; 3; 4; 5; 6

[2] = biological target: T1, recombinant murine RORγt LBD (Mus musculus, UniProt P51450); assay: Murine RORγt radioligand competition binding assay; conditions: for Mouse ligand binding Response (%): raw points of replicate experiments
T1 construct: 10nM purified HN-AVI-GST-TCS-mRORγ(aa256-516) was mixed with
T1 sequence (P51450 256-516): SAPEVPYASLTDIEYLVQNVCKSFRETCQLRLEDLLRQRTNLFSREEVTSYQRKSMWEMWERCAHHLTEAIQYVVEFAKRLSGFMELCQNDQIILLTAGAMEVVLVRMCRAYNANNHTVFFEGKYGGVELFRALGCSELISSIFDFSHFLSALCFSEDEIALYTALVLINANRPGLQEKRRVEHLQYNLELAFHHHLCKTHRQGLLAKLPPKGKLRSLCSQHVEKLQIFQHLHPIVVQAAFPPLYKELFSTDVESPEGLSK
Method: The assay was run in white/clear polystyrene flat-bottom 384-well plates (Greiner, cat. No. 781095). Assays were carried out in 40 μl reaction volumes. 0.125 μl of a fixed concentration range of test ligands dissolved in DMSO were added to assay plates using an acoustic liquid dispenser.
(§1) The raw data from the radio-ligand and co-factor recruitment assays were transformed to % effect using the equation:
(§2) Compound % effect = 100*[(X-min)/(max-min)]
(§3) where X represents the effect in the presence of test compound and max and min are the effects in presence of the maximum and minimum controls respectively.
(§4) The data was plotted to generate concentration response profiles and the concentration-response curves were fitted to the data using the non-linear regression analysis; 4 parameter logistic smart fit method in the Analyser application of the Genedata® Screener software (Genedata, Inc., Basel, Switzerland). […] Ki was calculated from the IC50 value using the equation Ki = IC50/1+[L]/Kd)

human RORα LBD = biological target: T2, human RORα LBD (Homo sapiens, UniProt P35398); assay: RORα co-factor recruitment assay; format: biochemical; conditions: raw points; for RORa agonism Response (%): agonism mode; for RORa inverse agonism Response (%): inverse agonism mode
T2 construct: 180 nM Protein (His6-tcs-hRORαLBD)
T2 sequence (P35398 272-510 limits assumed): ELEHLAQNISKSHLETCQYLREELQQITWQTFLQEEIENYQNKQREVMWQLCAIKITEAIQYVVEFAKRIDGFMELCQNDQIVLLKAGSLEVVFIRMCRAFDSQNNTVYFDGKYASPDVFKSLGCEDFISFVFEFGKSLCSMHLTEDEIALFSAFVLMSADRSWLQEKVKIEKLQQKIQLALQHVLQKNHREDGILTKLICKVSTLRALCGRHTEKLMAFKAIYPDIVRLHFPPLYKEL
Method: The assay was run in black 384 well plates (Greiner: 784900). A 0.2 μl volume of a fixed concentration range of test ligands dissolved in DMSO were added to assay plates using an acoustic liquid dispenser. Two pre-mixes were prepared in falcon tubes. Pre-mix 1 comprised 180 nM Protein (His6-tcs-hRORαLBD) and 8 nM Lance Eu-W1024-anti 6xHis in assay buffer, 50 mM Hepes pH7.4, 100 mM NaCl, 0.1% (w/v) BSA, 1 mM TCEP which was incubated for 30 minutes at room temperature before dispensing 10 μl to assay plates. Then, pre-mix 2 comprising 200 nM biotinylated PGC1alpha peptide and 50 nM streptavidin APC in assay buffer, was prepared and incubated for 30 minutes at room temperature before adding 10 μl to assay plates containing test compound and premix 1. Plates were incubated at room temperature for 1 hour in the dark, prior to reading in a Pherastar multi-mode plate reader (BMG LABTECH) using HTRF filter set (ex 320 nm, em 612 and 665 nm). The FRET signal at 665 nm was divided by the signal at 612 nm and multiplied by 10,000 to generate a signal ratio value for each well.
as §1, §2, §3, §4

[3] = test system: IL-17A production in primary human Th17 cells; assay: Primary human Th17 cell assay (IL-17A release); format: cell-based
Method: Peripheral blood mononuclear cells were isolated from heparin treated human whole blood from healthy donors by density gradient centrifugation. […] On day 4, supernatants were collected and IL-17A was measured using a Human IL-17A HTRF Assay kit (Cisbio/PerkinElmer, MA, USA) according to the manufacturer’s protocol.
Genedata Screener® software (Genedata, Inc., Basel, Switzerland) was used for data normalization, curve fitting and calculation of IC50 for IL-17A inhibition as well as for cell viability. Raw data from the Human IL-17A HTRF Assay and CellTiter-Glo® Luminescent Cell Viability assay was transformed to % effect according to the formula:
Compound % effect = 100*[(X-min)/(max-min)],
where X represents the effect in the presence of test compound. […] For the cell viability calculations, 2-(2,2-dicyclohexylethyl)piperidine at 10 μM was used as maximal toxicity control while DMSO was used as minimal toxicity control. A four-parameter logistic smart fit method in the Analyser application of the Genedata® Screener software was used for curve fitting of the % effect data and IC50 calculation.

mouse thymocytes = assay: Mouse thymocyte apoptosis assay ex vivo; format: cell-based; conditions: 26 hours, AnnexinV and 7AAD staining
Method: The thymus from a female C57BL/6NCrl (Charles River) mouse aged around 7 weeks was dissected out after giving the mouse a lethal i.p. injection of penthobarbital. Single cell suspension of thymocytes was prepared by disrupting the thymus through a 70 μm cell strainer with the top of a sterile 5 ml syringe plunger in DPBS (without Ca/Mg). Cells were filtered through a 40 μm cell strainer and washed in serum-free media before being resuspended in complete media (RPMI1640 with L-glutamine supplemented with 10% heat inactivated foetal bovine serum (FBS) (Gibco/Invitrogen) and 50 μM 2-mercaptoethanol (Gibco/Invitrogen).
Cells were seeded at 500 000 cells/well in 96-well plates (U-bottom, cat #3799, Corning, MA, USA) in the presence of compounds or DMSO and cultured for 26 hours (37°C, 5% CO2). The thymocytes were then washed twice in cold DPBS (without Ca/Mg) and stained with APC AnnexinV (#550475, BD Pharmingen, BD Biosciences, CA, USA) and 7AAD (#559925, BD Pharmingen) in AnnexinV Binding buffer (#556454, BD Pharmingen) for 15 minutes at RT (dark) in order to separate live cells from dead, early apoptotic and late apoptotic cells when analysed on the BD Accuri C6 (BD Biosciences, CA, USA).
The compound effect on the percentage of surviving cells relative to the DMSO control were calculated using the following formula; […]

[4] = biological target: T3, recombinant human RORγt LBD (Homo sapiens, UniProt P51449); assay: Human RORγt radioligand competition binding assay
T3 sequence (P51449 258-518): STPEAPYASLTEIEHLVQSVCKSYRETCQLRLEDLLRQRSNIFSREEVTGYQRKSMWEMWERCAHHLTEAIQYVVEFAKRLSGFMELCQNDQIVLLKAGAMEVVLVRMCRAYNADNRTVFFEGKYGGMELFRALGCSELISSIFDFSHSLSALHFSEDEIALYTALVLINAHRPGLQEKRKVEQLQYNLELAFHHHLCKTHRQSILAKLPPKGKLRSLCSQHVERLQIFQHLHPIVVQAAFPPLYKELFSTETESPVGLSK
Method: The assay was run in white polystyrene flat-bottom 384-well plates (Greiner, cat. No. 781075). Assays were carried out in 40 μl reaction volumes. A concentration range of test ligands in 0.4 μl of DMSO were added to assay plates using an acoustic liquid dispenser. […] Test plates were incubated for 16 hours and read using a LEADseeker (GE Healthcare, USA) Multimodality imaging instrument.
as §1, §2, §3, §4

thymic lymphomas [5] = conditions: rats; cited from earlier work
thymic lymphomas [6] = conditions: mice; cited from earlier work
[7] = tritiated ligand, used for Ki calculation

CC(=O)N1Cc2cc(S(C)(=O)=O)ccc2[C@@H]1C(=O)Nc1ccc(C(O)(C(F)(F)F)C(F)(F)F)cc1 [Compound 5]
effect on thymocyte numbers (thymocyte numbers): did not have a significant effect | ear thickness (IMQ model; IMQ model): significantly but partially reduced | effect in the IMQ model (IMQ model; repeated daily dosing of 15 mg/kg): a larger effect | Mouse PPB (% unbound) [1]: 18.6 (1) % | Mouse ligand binding Response (%) ([2]; -LOG10(Concentration) 5): -100.443% and -98.9% | Mouse ligand binding Response (%) ([2]; -LOG10(Concentration) 5.5): -97.044% and -97.709% and -95.886% | Mouse ligand binding Response (%) ([2]; -LOG10(Concentration) 6): -90.54% and -92.979% and -82.118% | Mouse ligand binding Response (%) ([2]; -LOG10(Concentration) 6.5): -75.979% and -75.927% | Mouse ligand binding Response (%) ([2]; -LOG10(Concentration) 7): -66.593% and -61.493% and -41.548% | Mouse ligand binding Response (%) ([2]; -LOG10(Concentration) 7.5): -41.39% and -32.816% and -24.196% | Mouse ligand binding Response (%) ([2]; -LOG10(Concentration) 8): -17.738% and -1.711% and -32.373% | Mouse ligand binding Response (%) ([2]; -LOG10(Concentration) 8.5): -14.117% and 14.175% | Mouse ligand binding Response (%) ([2]; -LOG10(Concentration) 9): -4.804% and 10.02% and -17.221% | Mouse ligand binding Response (%) ([2]; -LOG10(Concentration) 9.5): -4.804% and 5.051% and -11.899% | RORa agonism Response (%) (human RORα LBD; -LOG10(Concentration) 4.5): 151.862% | RORa agonism Response (%) (human RORα LBD; -LOG10(Concentration) 5): 149.498% | RORa agonism Response (%) (human RORα LBD; -LOG10(Concentration) 5.5): 136.244% | RORa agonism Response (%) (human RORα LBD; -LOG10(Concentration) 6): 110.728% | RORa agonism Response (%) (human RORα LBD; -LOG10(Concentration) 6.5): 68.027% | RORa agonism Response (%) (human RORα LBD; -LOG10(Concentration) 7): 28.348% | RORa agonism Response (%) (human RORα LBD; -LOG10(Concentration) 7.5): 7.215% | RORa agonism Response (%) (human RORα LBD; -LOG10(Concentration) 8): 11.627% | RORa agonism Response (%) (human RORα LBD; -LOG10(Concentration) 8.5): 1.827% | RORa agonism Response (%) (human RORα LBD; -LOG10(Concentration) 9): 1.839% | RORa inverse agonism Response (%) (human RORα LBD; -LOG10(Concentration) 4.5): 135.32% | RORa inverse agonism Response (%) (human RORα LBD; -LOG10(Concentration) 5): 141.906% | RORa inverse agonism Response (%) (human RORα LBD; -LOG10(Concentration) 5.5): 137.911% | RORa inverse agonism Response (%) (human RORα LBD; -LOG10(Concentration) 6): 125.139% | RORa inverse agonism Response (%) (human RORα LBD; -LOG10(Concentration) 6.5): 92.31% | RORa inverse agonism Response (%) (human RORα LBD; -LOG10(Concentration) 7): 46.105% | RORa inverse agonism Response (%) (human RORα LBD; -LOG10(Concentration) 7.5): 12.144% | RORa inverse agonism Response (%) (human RORα LBD; -LOG10(Concentration) 8): 1.673% | RORa inverse agonism Response (%) (human RORα LBD; -LOG10(Concentration) 8.5): -4.289% | RORa inverse agonism Response (%) (human RORα LBD; -LOG10(Concentration) 9): -3.197% | Human Th17 Response (%) ([3]; -LOG10(Concentration) 6.5, single points per experiment): -83.16% and -87.655% and -78.367% and -82.722% | Human IL-17A in Th17 cells ([3]; IL-17A in supernatants after 4 days): 7.8 ± 0.2 (45) | Thymocyte apoptosis (mouse thymocytes): 6.6 ± 0.1 (4)

CCS(=O)(=O)c1ccc(CC(=O)Nc2cc(-c3ccccc3COC)cs2)cc1 [2-(4-(ethylsulfonyl)phenyl)-N-(4-(2-(methoxymethyl)phenyl)thiophen-2-yl)acetamide, reference compound]
IC50 ([4]; the ligand that is used tritiated as radioligand, n = 6): 47.9 nM | Kd [4, 7]: 17 nM | IC50 ([2]; the ligand that is used tritiated as radioligand, n = 3): 123 nM | Kd [2, 7]: 45 nM

C[C@H]1C[C@H](C(=O)O)CC[C@H]1C(=O)N1CC[C@@]2(S(=O)(=O)c3ccc(F)cc3)c3ccc(C(F)(C(F)(F)F)C(F)(F)F)cc3CC[C@@H]12 [BMS-986251]
thymic lymphomas (thymic lymphomas [5]): thymic lymphomas | thymic lymphomas (thymic lymphomas [6]): thymic lymphomas
